Assay [1] has as its target T1, Alpha-1A adrenergic receptor (Homo sapiens, UniProt P35348).
T1 sequence (P35348 whole entry): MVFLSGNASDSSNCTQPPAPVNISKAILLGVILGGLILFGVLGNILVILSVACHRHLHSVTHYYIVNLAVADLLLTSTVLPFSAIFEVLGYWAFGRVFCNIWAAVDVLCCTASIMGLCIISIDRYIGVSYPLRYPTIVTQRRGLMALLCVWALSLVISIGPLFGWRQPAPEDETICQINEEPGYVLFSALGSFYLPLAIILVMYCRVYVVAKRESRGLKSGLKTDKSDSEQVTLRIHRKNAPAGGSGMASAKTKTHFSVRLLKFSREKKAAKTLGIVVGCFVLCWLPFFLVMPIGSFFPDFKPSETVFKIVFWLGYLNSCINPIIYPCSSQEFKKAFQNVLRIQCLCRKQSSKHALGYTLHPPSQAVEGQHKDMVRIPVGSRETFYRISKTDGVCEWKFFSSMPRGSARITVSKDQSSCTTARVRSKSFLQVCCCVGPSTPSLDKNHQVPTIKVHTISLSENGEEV
Description: Agonist activity at alpha-1A adrenergic receptor (unknown origin) expressed in CHOK1 cells after 3 mins by calcium flux/FLIPR assay. The class given is functional, cell-based, CHO-K1. On the technique in general: A change in cytosolic calcium serves as a functional read-out for many receptors and channels.

In assay [2] the target is T2, Cannabinoid receptor 1 (Homo sapiens, UniProt P21554). Description: Agonist activity at CB1 receptor (unknown origin) expressed in rat CHEM-1 cells after 3 mins by calcium flux/FLIPR assay. The assay is classed as functional, cell-based.
Assay [3] concerns the target Beta-2 adrenergic receptor (Homo sapiens, UniProt P07550). Description: Agonist activity at beta-2 adrenergic receptor (unknown origin) expressed in CHOK1 cells by HTRF cAMP immunoassay. The class given is functional, cell-based, CHO-K1. A general note: Time-resolved FRET reads energy transfer from a long-lived donor to a nearby acceptor.
Assay [4] concerns the target T3, D(1A) dopamine receptor (Homo sapiens, UniProt P21728). Description: Agonist activity at D1A receptor (unknown origin) expressed in CHOK1 cells by HTRF cAMP immunoassay. The class given is functional, cell-based, CHO-K1.
Assay [5] has as its target T4, D(4) dopamine receptor (Homo sapiens) (UniProt P21917).
T4 sequence (whole entry): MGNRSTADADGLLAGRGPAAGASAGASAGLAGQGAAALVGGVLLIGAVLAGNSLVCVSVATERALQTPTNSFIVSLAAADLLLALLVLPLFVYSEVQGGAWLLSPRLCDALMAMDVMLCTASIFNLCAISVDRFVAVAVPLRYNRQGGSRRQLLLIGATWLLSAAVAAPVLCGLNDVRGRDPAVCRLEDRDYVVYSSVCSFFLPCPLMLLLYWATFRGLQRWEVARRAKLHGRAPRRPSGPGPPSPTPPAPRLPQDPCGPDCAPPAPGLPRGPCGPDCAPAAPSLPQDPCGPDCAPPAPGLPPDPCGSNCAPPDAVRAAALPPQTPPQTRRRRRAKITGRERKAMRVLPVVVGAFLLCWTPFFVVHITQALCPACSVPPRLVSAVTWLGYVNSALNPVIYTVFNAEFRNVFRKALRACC
Description: Agonist activity at human D4 receptor expressed in Chem-5 cells assessed as calcium mobilization by FLIPR assay. The assay is classed as functional, cell-based.

In assay [6] the target is T5, Thromboxane A2 receptor (Homo sapiens, UniProt P21731).
T5 sequence (P21731 whole entry): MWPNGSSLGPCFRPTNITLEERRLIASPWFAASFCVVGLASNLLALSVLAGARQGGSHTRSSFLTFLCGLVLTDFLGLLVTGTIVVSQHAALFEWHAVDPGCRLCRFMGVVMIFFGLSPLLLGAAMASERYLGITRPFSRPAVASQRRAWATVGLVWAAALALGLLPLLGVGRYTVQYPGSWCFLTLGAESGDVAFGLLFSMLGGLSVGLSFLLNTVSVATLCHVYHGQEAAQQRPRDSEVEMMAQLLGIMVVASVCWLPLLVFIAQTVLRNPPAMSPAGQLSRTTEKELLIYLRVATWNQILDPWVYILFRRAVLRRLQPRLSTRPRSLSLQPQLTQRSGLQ
Description: Agonist activity at thromboxane A2 receptor (unknown origin) expressed in HEK293-EBNA cells after 3 mins by calcium flux/FLIPR assay. The class given is functional, cell-based.

The target of assay [7] is T6, Muscarinic acetylcholine receptor M2 (Homo sapiens, UniProt P08172).
T6 sequence (P08172 whole entry): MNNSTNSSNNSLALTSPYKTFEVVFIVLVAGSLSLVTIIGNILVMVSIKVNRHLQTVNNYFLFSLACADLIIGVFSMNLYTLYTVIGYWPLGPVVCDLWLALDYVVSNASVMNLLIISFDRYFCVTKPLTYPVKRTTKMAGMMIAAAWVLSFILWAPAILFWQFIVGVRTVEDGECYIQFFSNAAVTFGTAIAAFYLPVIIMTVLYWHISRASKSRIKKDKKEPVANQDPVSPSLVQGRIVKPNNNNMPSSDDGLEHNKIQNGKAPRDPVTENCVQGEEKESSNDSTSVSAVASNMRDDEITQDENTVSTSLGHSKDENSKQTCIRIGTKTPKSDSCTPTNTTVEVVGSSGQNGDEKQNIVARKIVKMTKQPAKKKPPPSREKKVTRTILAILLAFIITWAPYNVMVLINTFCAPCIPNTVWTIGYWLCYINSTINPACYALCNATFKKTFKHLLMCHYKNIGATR
Description: Agonist activity at muscarinic acetylcholine receptor M2 (unknown origin) expressed in CHOK1 cells after 3 mins by calcium flux/FLIPR assay. The assay is classed as functional, cell-based, CHO-K1.

In assay [8] the target is T2, Cannabinoid receptor 1. Description: Antagonist activity at CB1 receptor (unknown origin) expressed in rat CHEM-1 cells after 15 mins by calcium flux/FLIPR assay in presence of CP55940. The class given is functional, cell-based.
Assay [9] concerns the target T7, 5-hydroxytryptamine receptor 2B (Homo sapiens, UniProt P41595). Description: Agonist activity at 5HT2B receptor (unknown origin) expressed in CHOK1 cells after 3 mins by calcium flux/FLIPR assay. The assay is classed as functional, cell-based, CHO-K1.
In assay [10] the target is T1, Alpha-1A adrenergic receptor. Description: Antagonist activity at alpha-1A adrenergic receptor (unknown origin) expressed in CHOK1 cells after 15 mins by calcium flux/FLIPR assay in presence of A-61603. The assay is classed as functional, cell-based, CHO-K1.
The target in assay [11] is T5, Thromboxane A2 receptor. Description: Antagonist activity at thromboxane A2 receptor (unknown origin) expressed in HEK293-EBNA cells after 15 mins by calcium flux/FLIPR assay in presence of U-46619. The assay is classed as functional, cell-based.
Assay [12] concerns the target T8, 5-hydroxytryptamine receptor 1A (Homo sapiens, UniProt P08908).
T8 sequence (P08908 whole entry): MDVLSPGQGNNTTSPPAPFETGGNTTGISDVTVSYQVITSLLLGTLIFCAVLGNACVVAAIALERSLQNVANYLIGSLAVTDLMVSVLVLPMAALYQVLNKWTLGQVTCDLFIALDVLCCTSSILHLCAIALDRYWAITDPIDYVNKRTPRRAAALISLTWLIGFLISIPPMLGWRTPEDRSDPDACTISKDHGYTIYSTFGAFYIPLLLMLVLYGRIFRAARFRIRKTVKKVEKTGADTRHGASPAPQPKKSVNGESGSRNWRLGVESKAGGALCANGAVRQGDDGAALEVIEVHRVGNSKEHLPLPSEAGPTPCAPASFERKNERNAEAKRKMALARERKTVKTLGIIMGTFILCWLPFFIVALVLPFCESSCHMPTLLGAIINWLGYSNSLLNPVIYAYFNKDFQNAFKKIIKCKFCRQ
Description: Agonist activity at 5HT1A receptor (unknown origin) expressed in HeLa cells after 3 mins by calcium flux/FLIPR assay. The assay is classed as functional, cell-based.

Assay [13] addresses T9, 5-hydroxytryptamine receptor 2A (Homo sapiens, UniProt P28223). Description: Antagonist activity at 5HT2A receptor (unknown origin) expressed in CHOK1 cells after 15 mins by calcium flux/FLIPR assay in presence of 5HT. The assay is classed as functional, cell-based, CHO-K1.
The target of assay [14] is Sphingosine 1-phosphate receptor Edg-5/Sphingosine 1-phosphate receptor Edg-3 (Homo sapiens) (UniProt O95136+Q99500). Description: Agonist activity at S1P2/3 receptor in HEK293 cells assessed as inhibition of forskolin-induced cAMP level after 1 hr by alphascreen immunoassay. The assay is classed as functional, cell-based. A general note: cAMP levels reflect the balance of adenylyl cyclase and phosphodiesterase activity.

For assay [15], the target named is T6, Muscarinic acetylcholine receptor M2. Description: Antagonist activity at muscarinic acetylcholine receptor M2 (unknown origin) expressed in CHOK1 cells after 15 mins by calcium flux/FLIPR assay in presence of acetylcholine. The class given is functional, cell-based, CHO-K1.
Assay [16] deals with T7, 5-hydroxytryptamine receptor 2B. Description: Antagonist activity at 5HT2B receptor (unknown origin) expressed in CHOK1 cells after 15 mins by calcium flux/FLIPR assay in presence of BW723C86. The assay is classed as functional, cell-based, CHO-K1.
The target in assay [17] is T3, D(1A) dopamine receptor. Description: Antagonist activity at D1A receptor (unknown origin) expressed in CHOK1 cells after 5 mins by HTRF cAMP immunoassay in presence of cAMP/SKF38393. The class given is functional, cell-based, CHO-K1.
For assay [18], the target named is T8, 5-hydroxytryptamine receptor 1A. Description: Antagonist activity at 5HT1A receptor (unknown origin) expressed in HeLa cells after 15 mins by calcium flux/FLIPR assay in presence of R-(+)-8-OH-DPAT. The assay is classed as functional, cell-based.
For assay [19], the target named is T9, 5-hydroxytryptamine receptor 2A. Description: Agonist activity at 5HT2A receptor (unknown origin) expressed in CHOK1 cells after 3 mins by calcium flux/FLIPR assay. The assay is classed as functional, cell-based, CHO-K1.

From ChEMBL document CHEMBL3352267, “The design and implementation of a generic lipopeptide scanning platform to enable the identification of 'locally acting' agonists for the apelin receptor” (Bioorg Med Chem Lett, 2014) come the findings set out here.

The structures appear in SMILES notation. The source made the active and inactive calls. The calls are words filed in the database; no cut-off is given here. Residues, ends and D or L forms follow the SMILES beside them. *: point of attachment. Palmitoyl = CCCCCCCCCCCCCCCC(=O)* A value given as a limit tells only on which side of the number the result lay.

T9 sequence (P28223 whole entry): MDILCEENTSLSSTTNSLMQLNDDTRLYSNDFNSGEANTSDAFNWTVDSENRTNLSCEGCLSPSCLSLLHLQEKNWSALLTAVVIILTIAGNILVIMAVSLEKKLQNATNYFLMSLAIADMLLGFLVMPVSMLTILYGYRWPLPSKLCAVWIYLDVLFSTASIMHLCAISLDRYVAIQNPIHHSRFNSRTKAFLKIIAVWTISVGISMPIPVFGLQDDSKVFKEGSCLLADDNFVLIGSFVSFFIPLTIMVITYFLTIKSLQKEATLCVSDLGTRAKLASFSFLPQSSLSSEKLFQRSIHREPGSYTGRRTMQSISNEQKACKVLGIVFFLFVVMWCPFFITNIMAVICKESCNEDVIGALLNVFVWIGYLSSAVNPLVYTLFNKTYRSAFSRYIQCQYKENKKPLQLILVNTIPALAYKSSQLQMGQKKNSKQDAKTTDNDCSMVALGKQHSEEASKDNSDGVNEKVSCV
T3 sequence (P21728 whole entry): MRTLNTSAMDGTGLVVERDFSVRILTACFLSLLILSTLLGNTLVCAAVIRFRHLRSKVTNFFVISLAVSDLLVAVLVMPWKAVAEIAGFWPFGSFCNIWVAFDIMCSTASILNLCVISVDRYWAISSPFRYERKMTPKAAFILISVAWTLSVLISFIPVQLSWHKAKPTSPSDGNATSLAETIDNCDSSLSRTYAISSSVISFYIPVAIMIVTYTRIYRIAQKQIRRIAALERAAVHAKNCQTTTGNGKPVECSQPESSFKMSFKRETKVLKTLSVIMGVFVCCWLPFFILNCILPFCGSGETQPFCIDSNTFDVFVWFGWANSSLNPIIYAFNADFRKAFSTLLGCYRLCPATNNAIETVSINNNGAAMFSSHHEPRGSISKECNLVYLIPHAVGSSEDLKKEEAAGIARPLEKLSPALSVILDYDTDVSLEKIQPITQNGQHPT
T7 sequence (P41595 whole entry): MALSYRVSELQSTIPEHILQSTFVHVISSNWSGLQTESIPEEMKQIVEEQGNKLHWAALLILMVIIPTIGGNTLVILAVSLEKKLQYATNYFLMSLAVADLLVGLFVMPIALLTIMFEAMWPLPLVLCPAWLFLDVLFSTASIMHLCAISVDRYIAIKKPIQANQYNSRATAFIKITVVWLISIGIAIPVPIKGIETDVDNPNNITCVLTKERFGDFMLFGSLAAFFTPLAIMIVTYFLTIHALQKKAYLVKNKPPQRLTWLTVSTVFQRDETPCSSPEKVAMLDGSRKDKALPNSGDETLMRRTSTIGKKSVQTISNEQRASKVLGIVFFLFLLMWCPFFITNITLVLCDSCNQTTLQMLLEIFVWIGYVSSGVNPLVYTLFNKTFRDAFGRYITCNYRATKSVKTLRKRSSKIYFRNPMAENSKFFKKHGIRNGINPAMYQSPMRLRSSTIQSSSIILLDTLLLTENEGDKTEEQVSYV
T2 sequence (P21554 whole entry): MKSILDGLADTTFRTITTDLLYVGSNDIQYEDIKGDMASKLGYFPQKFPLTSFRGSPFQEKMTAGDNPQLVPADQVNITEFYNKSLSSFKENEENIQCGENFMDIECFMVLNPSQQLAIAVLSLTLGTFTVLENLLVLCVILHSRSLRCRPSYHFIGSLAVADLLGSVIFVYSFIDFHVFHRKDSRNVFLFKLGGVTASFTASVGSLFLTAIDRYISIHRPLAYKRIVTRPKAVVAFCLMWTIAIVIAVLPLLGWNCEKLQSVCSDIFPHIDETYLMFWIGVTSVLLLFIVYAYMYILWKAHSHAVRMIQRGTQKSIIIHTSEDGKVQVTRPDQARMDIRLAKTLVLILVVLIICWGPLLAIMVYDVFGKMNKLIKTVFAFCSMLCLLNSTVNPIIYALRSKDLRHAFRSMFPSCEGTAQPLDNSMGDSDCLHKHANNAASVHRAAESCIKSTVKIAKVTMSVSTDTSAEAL
Chain of Beta-2 adrenergic receptor (P07550 whole entry): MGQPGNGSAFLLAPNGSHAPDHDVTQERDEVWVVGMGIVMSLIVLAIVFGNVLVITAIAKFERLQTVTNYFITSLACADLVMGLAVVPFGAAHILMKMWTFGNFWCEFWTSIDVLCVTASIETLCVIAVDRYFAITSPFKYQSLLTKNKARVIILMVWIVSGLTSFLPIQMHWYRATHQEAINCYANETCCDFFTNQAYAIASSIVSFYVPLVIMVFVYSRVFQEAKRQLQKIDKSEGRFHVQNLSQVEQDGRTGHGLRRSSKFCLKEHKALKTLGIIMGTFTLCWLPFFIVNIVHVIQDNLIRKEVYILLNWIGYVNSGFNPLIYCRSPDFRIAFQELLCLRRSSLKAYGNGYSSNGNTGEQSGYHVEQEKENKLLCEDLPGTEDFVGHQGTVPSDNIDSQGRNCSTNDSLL

A word on the EC50: it is the concentration needed to bring the measured effect to its halfway point. In general, IC50 refers to the concentration that inhibits the measured activity by half. With `CCCCCCCCCCCCCCCC(=O)N[C@H](C(=O)N[C@H](C(=O)N[C@@H](CC(C)C)C(=O)N1CCC[C@H]1C(=O)N[C@@H](CC(C)C)C(=O)N[C@@H](Cc1c[nH]c2ccccc12)C(=O)N[C@@H](C)C(=O)N[C@H](C(=O)N[C@@H](Cc1ccc(O)cc1)C(=O)N[C@H](C(=O)N[C@@H](Cc1ccc(O)cc1)C(=O)N[C@@H](CCCNC(=N)N)C(N)=O)[C@@H](C)O)[C@@H](C)O)[C@@H](C)O)C(C)C` (Palmitoyl-VTLPLWATYTYR-NH2), the EC50 in [1], in [2], in assay [3], in [4], in [6] and in assay [7] was over 30 µM throughout. Also, the EC50 in assay [9], in assay [12] and in assay [19] was over 30 µM in each case. Further, the result in assay [5] and in assay [14] was inactive. The IC50 in assay [8], in assay [10], in [11], in assay [13], in assay [15] and in assay [16] was over 30 µM each time. The IC50 in assay [17] and in assay [18] was over 30 µM each time.
